From article PMC5908784, “Extracellular loops 2 and 3 of the calcitonin receptor selectively modify agonist binding and efficacy” (Biochemical Pharmacology, 2018)
Residue numbers refer to the chain shown, from its start. Where a SMILES comes first, the peptide text is derived from it. Bridges are numbered along the chain shown (N, C = ends).

Key:
Assay in all cases: IP1 accumulation
Type in all cases: cell-based
Conditions in all cases: mean ± S.E.M.; for Emax: IP1 maximal response, SEM
hCTR F285A = biological target: T1, hCTR F285A (Homo sapiens, UniProt P30988, F285A)
T1 construct: expressed in transfected cells
T1 sequence (P30988 25-474 F285A): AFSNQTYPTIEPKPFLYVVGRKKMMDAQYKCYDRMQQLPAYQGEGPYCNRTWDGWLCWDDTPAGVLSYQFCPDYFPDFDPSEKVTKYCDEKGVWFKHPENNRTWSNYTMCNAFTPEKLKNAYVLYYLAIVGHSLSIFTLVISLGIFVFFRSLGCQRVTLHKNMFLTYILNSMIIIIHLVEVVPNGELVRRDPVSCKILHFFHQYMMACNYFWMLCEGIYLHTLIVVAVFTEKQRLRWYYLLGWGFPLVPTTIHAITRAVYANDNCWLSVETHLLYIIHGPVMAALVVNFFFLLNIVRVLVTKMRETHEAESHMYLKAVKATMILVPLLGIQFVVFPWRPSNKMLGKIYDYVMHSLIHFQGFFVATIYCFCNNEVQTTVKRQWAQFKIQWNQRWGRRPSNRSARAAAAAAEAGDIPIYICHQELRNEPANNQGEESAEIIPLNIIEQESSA
Experimental: (§1) Cells (2.5 × 10^4 cells/well) were plated into 96 well trays and cultured overnight. Cells were stimulated with increasing concentration of ligands for 60 min in the presence of LiCl. Samples were lysed and endogenous IP1 was measured using an IP-One HTRF® assay kit (CisBio) as specified by the manufacturer. Data were normalized to the maximal response elicited by 100 μM of ATP.
(§2) Data were corrected for radioligand occupancy using the Cheng-Prusoff equation in Prism; as such data are reported as pKi. Emax and EC50 were estimated from concentration-response curves using with a 3-parameter logistic equation in Prism (v7). These values are a composite of functional affinity, efficacy and stimulus response coupling. […] Significance was accepted at P < 0.05.

hCTR L368A = biological target: T2, hCTR L368A (Homo sapiens, UniProt P30988, L368A)
T2 construct: c-Myc (N); expressed in transfected cells
T2 sequence (P30988 25-474 L368A): T1 sequence (P30988 25-474 F285A) with A261F, L344A
Experimental: as §1, §2

hCTR M367A = biological target: T3, hCTR M367A (Homo sapiens, UniProt P30988, M367A)
T3 construct: c-Myc (N); expressed in transfected cells
T3 sequence (P30988 25-474 M367A): T1 sequence (P30988 25-474 F285A) with A261F, M343A
Experimental: as §1, §2

hCTR R362A = biological target: T4, hCTR R362A (Homo sapiens, UniProt P30988, R362A)
T4 construct: expressed in transfected cells
T4 sequence (P30988 25-474 R362A): T1 sequence (P30988 25-474 F285A) with A261F, R338A
Experimental: as §1, §2

hCTR V375A = biological target: T5, hCTR V375A (Homo sapiens, UniProt P30988, V375A)
T5 construct: c-Myc (N); expressed in transfected cells
T5 sequence (P30988 25-474 V375A): T1 sequence (P30988 25-474 F285A) with A261F, V351A
Experimental: as §1, §2

[1] = IP1, CV1-FlpIn cells, 60 min, LiCl

Row | SMILES | Emax (hCTR F285A) [%] | Emax (hCTR L368A) [%] | Emax (hCTR M367A) [%] | Emax (hCTR R362A) [%] | Emax (hCTR V375A) [%] | EC50 (hCTR F285A; [1]) [nM] | EC50 (hCTR L368A; [1]) [nM] | EC50 (hCTR M367A; [1]) [nM] | EC50 (hCTR R362A; [1]) [nM] | EC50 (hCTR V375A; [1]) [nM]
1 | CC(C)C[C@H](NC(=O)[C@H](CCCCN)NC(=O)CNC(=O)[C@H](CC(C)C)NC(=O)[C@@H](NC(=O)[C@@H]1CSSC[C@H](N)C(=O)N[C@@H](CO)C(=O)N[C@@H](CC(N)=O)C(=O)N[C@@H](CC(C)C)C(=O)N[C@@H](CO)C(=O)N[C@@H]([C@@H](C)O)C(=O)N1)C(C)C)C(=O)N[C@@H](CO)C(=O)N[C@@H](CCC(N)=O)C(=O)N[C@@H](CCC(=O)O)C(=O)N[C@@H](CC(C)C)C(=O)N[C@@H](Cc1c[nH]cn1)C(=O)N[C@@H](CCCCN)C(=O)N[C@@H](CC(C)C)C(=O)N[C@@H](CCC(N)=O)C(=O)N[C@H](C(=O)N[C@@H](Cc1ccc(O)cc1)C(=O)N1CCC[C@H]1C(=O)N[C@@H](CCCNC(=N)N)C(=O)N[C@H](C(=O)N[C@@H](CC(N)=O)C(=O)N[C@H](C(=O)NCC(=O)N[C@@H](CO)C(=O)NCC(=O)N[C@H](C(=O)N1CCC[C@H]1C(N)=O)[C@@H](C)O)[C@@H](C)O)[C@@H](C)O)[C@@H](C)O [sCT] | 114 ± 6 | 97 ± 4 | 123 ± 6 | 64 ± 5 | 87 ± 5 | – | – | – | – | –
2 | CC[C@H](C)[C@H](NC(=O)[C@H](C)NC(=O)[C@@H](NC(=O)[C@H](CCC(N)=O)NC(=O)[C@@H]1CCCN1C(=O)[C@H](Cc1ccccc1)NC(=O)[C@@H](NC(=O)[C@H](Cc1c[nH]cn1)NC(=O)[C@H](Cc1ccccc1)NC(=O)[C@H](CCCCN)NC(=O)[C@H](CC(N)=O)NC(=O)[C@H](Cc1ccccc1)NC(=O)[C@H](CC(=O)O)NC(=O)[C@H](CCC(N)=O)NC(=O)[C@@H](NC(=O)[C@H](Cc1ccc(O)cc1)NC(=O)[C@@H](NC(=O)CNC(=O)[C@H](CC(C)C)NC(=O)[C@H](CCSC)NC(=O)[C@@H]1CSSC[C@H](N)C(=O)NCC(=O)N[C@@H](CC(N)=O)C(=O)N[C@@H](CC(C)C)C(=O)N[C@@H](CO)C(=O)N[C@@H]([C@@H](C)O)C(=O)N1)[C@@H](C)O)[C@@H](C)O)[C@@H](C)O)[C@@H](C)O)C(=O)NCC(=O)N[C@H](C(=O)NCC(=O)N[C@@H](C)C(=O)N1CCC[C@H]1C(N)=O)C(C)C [hCT] | 58 ± 6 | 115 ± 7 | 149 ± 8 | 77 ± 11 | 104 ± 6 | – | – | – | – | –
3 | CSCC[C@H](NC(=O)CNC(=O)[C@H](CO)NC(=O)[C@H](Cc1ccccc1)NC(=O)[C@H](CCCNC(=N)N)NC(=O)[C@H](Cc1c[nH]cn1)NC(=O)[C@H](Cc1ccccc1)NC(=O)[C@H](CC(N)=O)NC(=O)[C@H](CC(N)=O)NC(=O)[C@H](CC(C)C)NC(=O)[C@H](CC(N)=O)NC(=O)[C@H](CCCNC(=N)N)NC(=O)[C@H](Cc1c[nH]c2ccccc12)NC(=O)[C@H](Cc1ccc(O)cc1)NC(=O)[C@H](C)NC(=O)[C@H](CO)NC(=O)[C@H](CC(C)C)NC(=O)[C@@H](NC(=O)[C@@H]1CSSC[C@H](N)C(=O)N[C@@H](CO)C(=O)N[C@@H](CC(N)=O)C(=O)N[C@@H](CC(C)C)C(=O)N[C@@H](CO)C(=O)N[C@@H]([C@@H](C)O)C(=O)N1)C(C)C)C(=O)NCC(=O)N[C@@H](Cc1ccccc1)C(=O)NCC(=O)N1CCC[C@H]1C(=O)N[C@@H](CCC(=O)O)C(=O)N[C@H](C(=O)N1CCC[C@H]1C(N)=O)[C@@H](C)O [pCT] (H-CSNLSTCVLSAYWRNLNNFHRFSGMGFGPETP-NH2; disulfide 1-7) | 112 ± 13 | 94 ± 9 | 101 ± 8 | 47 ± 9 | 100 ± 5 | 5.01 | 10 | 5.13 | 19.5 | 1.17
